In patent US20170037471A1, “METHODS FOR DIAGNOSING & TREATING COPPER-DEPENDENT DISEASES” (Duke University, priority 2013, published 2017):
Residues, ends and D or L forms follow the SMILES beside them. *: point of attachment. Cbz = O=C(OCc1ccccc1)*; CHN2 = [N-]=[N+]=C*; tBu = CC(C)(C)*

What was measured:
Ctr1 cleavage = Ctr1 cleavage in wild type and Cathepsin L-/- mouse embryonic fibroblasts, anti-Ctr1 immunoblot; type: cell-based; conditions: 10 μM, 16 hours, immunoblot (FIG. 7)
Procedure: Mouse embryonic fibroblasts from wild type and CatL^−/− littermates were cultured in medium supplemented with 10% fetal bovine serum and treated with DMSO or 10 μM of the cell permeable cysteine protease inhibitor E64d and harvested 16 hours later. Total proteins were isolated from the cells by homogenizing cells in ice cold PBS supplemented with 1% Triton-X, 0.1% SDS, and 1 mM EDTA. Cell debris was removed by centrifugation and the total amounts of soluble proteins were quantified in each sample. Equal amounts of proteins were separated on tris/glycine gradient gel, transferred to nitrocellulose membrane and blocked with 5% non-fat milk in Tris buffered saline supplemented with 0.05% Tween (TBST) for 1 h. Membranes were incubated with anti-Ctr1 antibody (1:1000) followed by anti-rabbit-HRP coupled antibody (1:5000) and bands detected by enhanced chemiluminescent substrate. Anti-Tubulin antibody was used as loading control.
Lanes 1 and 2 are duplicate samples from untreated wild type cells and lanes 5 and 6 are duplicate samples from untreated Cathepsin L knock out cells.

[1] = test system: human Ctr1 protein containing the proline to alanine substitution at position 25 (Ctr1^P25A); experiment: Ctr1^P25A cleavage protection in stably transfected Ctr1-/- mouse embryonic fibroblasts, anti-Ctr1 immunoblot; type: cell-based; conditions: Ctr1-/- MEFs expressing human Ctr1^P25A, 10 μM, 16 hours, immunoblot (FIG. 8)
Procedure: Mouse embryonic fibroblasts from Ctr1^−/− embryos were stably transfected with plasmids expressing either the wild type human Ctr1 protein or the human Ctr1 protein containing the proline to alanine substitution at position 25 (Ctr1^P25A). Cells were cultured in medium supplemented with 20% fetal bovine serum and treated with DMSO or 10 μM cysteine protease […], Z-FY(t-Bu)-DMK and harvested 16 hours later. Total proteins were isolated from the cells by homogenizing cells in ice cold PBS supplemented with 1% Triton-X, 0.1% SDS, and 1 mM EDTA. Cell debris was removed by centrifugation and the total amounts of soluble proteins were quantified in each sample. Equal amounts of proteins were separated on tris/glycine gradient gel, transferred to nitrocellulose membrane and blocked with 5% non-fat milk in Tris buffered saline supplemented with 0.05% Tween (TBST) for 1 h. Membranes were incubated with anti-Ctr1 antibody (1:1000) followed by anti-rabbit-HRP coupled antibody (1:5000) and bands detected by enhanced chemiluminescent substrate. Anti-Actin antibody was used as loading control.

SMILES	levels of cleaved Ctr1 (Ctr1 cleavage; Cathepsin L knock out MEFs)	levels of cleaved Ctr1 (Ctr1 cleavage; wild type MEFs)	reduction in full length form of Ctr1^P25A [1]
CCOC(=O)[C@H]1O[C@@H]1C(=O)N[C@@H](CC(C)C)C(=O)NCCC(C)C (relative stereo) [E64d, (2S,3S)-trans-Epoxysuccinyl-L-leucylamido-3-methylbutane ethyl ester]	not Cathepsin L knock out cells	dramatic reduction in the levels of cleaved Ctr1	
CC(C)(C)Oc1ccc(CC(NC(=O)C(Cc2ccccc2)NC(=O)OCc2ccccc2)C(=O)C=[N+]=[N-])cc1 (stereo not drawn) [Z-FY(t-Bu)-DMK, benzyl (1-((1-(4-(tert-butoxy)phenyl)-4-diazo-3-oxobutan-2-yl)amino)-1-oxo-3-phenylpropan-2-yl)carbamate] (Cbz-Phe-Tyr(tBu)-CHN2; configuration not given here)			can be alleviated by treatment with Cathepsin L inhibitors
